# From PubChem BioAssay (NCI)
#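 Test compounds were applied to cells in 96-well plates for 48 hours at 5 doses. Abbreviation: GI50, concentration required for 50% inhibition of growth. TGI: total growth inhibition.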
# What was measured:
# Test in all cases: inhibition of tumour cell growth, NCI panel, 48 h
# OVCAR-4 ovarian = system: OVCAR-4 ovarian
# PC-3 prostate = system: PC-3 prostate
# SK-MEL-5 melanoma = system: SK-MEL-5 melanoma
# SW-620 colon = system: SW-620 colon
# SF-295 CNS = system: SF-295 CNS
# SK-MEL-28 melanoma = system: SK-MEL-28 melanoma
# OVCAR-5 ovarian = system: OVCAR-5 ovarian
# DU-145 prostate = system: DU-145 prostate
# RPMI-8226 leukemia = system: RPMI-8226 leukemia
# TK-10 renal = system: TK-10 renal
# HOP-62 NSCLC = system: HOP-62 NSCLC
# NCI-H522 lung = system: NCI-H522 lung
# MALME-3M melanoma = system: MALME-3M melanoma
# HL-60(TB) leukemia = system: HL-60(TB) leukemia
# CAKI-1 renal = system: CAKI-1 renal
# A498 renal = system: A498 renal
# HT29 colon = system: HT29 colon
# LOX IMVI melanoma = system: LOX IMVI melanoma
# A549 NSCLC = system: A549 NSCLC
# ACHN renal = system: ACHN renal
# NCI/ADR-RES ovarian = system: NCI/ADR-RES ovarian
# CCRF-CEM leukemia = system: CCRF-CEM leukemia
# HOP-92 NSCLC = system: HOP-92 NSCLC
# HCT-116 colon = system: HCT-116 colon
# MCF7 breast = system: MCF7 breast
# T-47D breast = system: T-47D breast
# IGROV1 ovarian = system: IGROV1 ovarian
# MOLT-4 leukemia = system: MOLT-4 leukemia
# SF-268 CNS = system: SF-268 CNS
# 786-0 renal = system: 786-0 renal
# M14 melanoma = system: M14 melanoma
# OVCAR-8 ovarian = system: OVCAR-8 ovarian
# SN12C renal = system: SN12C renal
# SR leukemia = system: SR leukemia
# HCT-15 colon = system: HCT-15 colon
# MDA-MB-435 = system: MDA-MB-435
# UACC-257 melanoma = system: UACC-257 melanoma
# NCI-H460 lung = system: NCI-H460 lung
# RXF 393 renal = system: RXF 393 renal
# K-562 leukemia = system: K-562 leukemia
# NCI-H23 lung = system: NCI-H23 lung
# SNB-75 CNS = system: SNB-75 CNS
# COLO 205 colon = system: COLO 205 colon
# SK-OV-3 ovarian = system: SK-OV-3 ovarian
# SNB-19 CNS = system: SNB-19 CNS
# U251 CNS = system: U251 CNS
# SF-539 CNS = system: SF-539 CNS
# HS 578T breast = system: HS 578T breast
# UACC-62 melanoma = system: UACC-62 melanoma
# HCC-2998 colon = system: HCC-2998 colon
# UO-31 renal = system: UO-31 renal
# EKVX NSCLC = system: EKVX NSCLC
# BT-549 breast = system: BT-549 breast
# NCI-H226 lung = system: NCI-H226 lung
# MDA-MB-231 breast = system: MDA-MB-231 breast
# KM12 colon = system: KM12 colon
# OVCAR-3 ovarian = system: OVCAR-3 ovarian
# SK-MEL-2 melanoma = system: SK-MEL-2 melanoma
structure (smiles),measurement,setting,value
CCn1cc(C2NC(=O)c3ccccc3N2)c2cccc(C)c21 (stereo not drawn),GI50,OVCAR-4 ovarian,1.49 µM
same,TGI,OVCAR-4 ovarian,13.1 µM
same,GI50,PC-3 prostate,0.443 µM
same,TGI,PC-3 prostate,> 100 µM
same,GI50,SK-MEL-5 melanoma,0.338 µM
same,TGI,SK-MEL-5 melanoma,5.87 µM
same,GI50,SW-620 colon,0.337 µM
same,TGI,SW-620 colon,> 100 µM
same,GI50,SF-295 CNS,0.293 µM
same,GI50,SK-MEL-28 melanoma,2.04 µM
same,TGI,SK-MEL-28 melanoma,> 100 µM
same,GI50,OVCAR-5 ovarian,0.915 µM
same,TGI,OVCAR-5 ovarian,> 91.6 µM
same,GI50,DU-145 prostate,0.43 µM
same,TGI,DU-145 prostate,27.9 µM
same,GI50,RPMI-8226 leukemia,0.381 µM
same,TGI,RPMI-8226 leukemia,> 100 µM
same,GI50,TK-10 renal,3 µM
same,TGI,TK-10 renal,> 40.9 µM
same,GI50,HOP-62 NSCLC,0.517 µM
same,TGI,HOP-62 NSCLC,34.2 µM
same,GI50,NCI-H522 lung,0.265 µM
same,TGI,NCI-H522 lung,17.6 µM
same,GI50,MALME-3M melanoma,0.449 µM
same,TGI,MALME-3M melanoma,> 100 µM
same,GI50,HL-60(TB) leukemia,0.31 µM
same,TGI,HL-60(TB) leukemia,1.06 µM
same,GI50,CAKI-1 renal,0.289 µM
same,TGI,CAKI-1 renal,20.4 µM
same,GI50,A498 renal,0.172 µM
same,TGI,A498 renal,0.947 µM
same,GI50,HT29 colon,0.331 µM
same,TGI,HT29 colon,4.29 µM
same,GI50,LOX IMVI melanoma,0.571 µM
same,TGI,LOX IMVI melanoma,13.7 µM
same,GI50,A549 NSCLC,0.653 µM
same,TGI,A549 NSCLC,14.7 µM
same,GI50,ACHN renal,0.685 µM
same,TGI,ACHN renal,23.1 µM
same,GI50,NCI/ADR-RES ovarian,0.319 µM
same,TGI,NCI/ADR-RES ovarian,4.57 µM
same,GI50,CCRF-CEM leukemia,0.324 µM
same,TGI,CCRF-CEM leukemia,96.9 µM
same,GI50,HOP-92 NSCLC,4.79 µM
same,TGI,HOP-92 NSCLC,> 78.7 µM
same,GI50,HCT-116 colon,0.409 µM
same,TGI,HCT-116 colon,11.5 µM
same,GI50,MCF7 breast,0.298 µM
same,TGI,MCF7 breast,> 100 µM
same,GI50,T-47D breast,0.556 µM
same,TGI,T-47D breast,> 100 µM
same,GI50,IGROV1 ovarian,0.473 µM
same,TGI,IGROV1 ovarian,> 100 µM
same,GI50,MOLT-4 leukemia,0.531 µM
same,TGI,MOLT-4 leukemia,> 100 µM
same,GI50,SF-268 CNS,1.36 µM
same,TGI,SF-268 CNS,> 68 µM
same,GI50,786-0 renal,0.539 µM
same,TGI,786-0 renal,22.3 µM
same,GI50,M14 melanoma,0.298 µM
same,TGI,M14 melanoma,> 100 µM
same,GI50,OVCAR-8 ovarian,0.617 µM
same,TGI,OVCAR-8 ovarian,22.6 µM
same,GI50,SN12C renal,0.579 µM
same,TGI,SN12C renal,17 µM
same,GI50,SR leukemia,0.261 µM
same,TGI,SR leukemia,> 100 µM
same,GI50,HCT-15 colon,0.36 µM
same,TGI,HCT-15 colon,24.5 µM
same,GI50,MDA-MB-435,0.142 µM
same,TGI,MDA-MB-435,0.357 µM
same,GI50,UACC-257 melanoma,60 µM
same,TGI,UACC-257 melanoma,> 100 µM
same,GI50,NCI-H460 lung,0.346 µM
same,TGI,NCI-H460 lung,1.46 µM
same,GI50,RXF 393 renal,0.199 µM
same,TGI,RXF 393 renal,0.658 µM
same,GI50,K-562 leukemia,0.224 µM
same,TGI,K-562 leukemia,> 100 µM
same,GI50,NCI-H23 lung,0.844 µM
same,TGI,NCI-H23 lung,> 100 µM
same,GI50,SNB-75 CNS,0.184 µM
same,TGI,SNB-75 CNS,0.829 µM
same,GI50,COLO 205 colon,0.485 µM
same,TGI,COLO 205 colon,9.88 µM
same,GI50,SK-OV-3 ovarian,0.522 µM
same,TGI,SK-OV-3 ovarian,> 86.1 µM
same,GI50,SNB-19 CNS,0.456 µM
same,TGI,SNB-19 CNS,> 100 µM
same,GI50,U251 CNS,0.456 µM
same,TGI,U251 CNS,13.9 µM
same,GI50,SF-539 CNS,0.275 µM
same,TGI,SF-539 CNS,1.34 µM
same,GI50,HS 578T breast,0.255 µM
same,TGI,HS 578T breast,1.95 µM
same,GI50,UACC-62 melanoma,0.311 µM
same,TGI,UACC-62 melanoma,> 100 µM
same,GI50,HCC-2998 colon,1.08 µM
same,TGI,HCC-2998 colon,8.22 µM
same,GI50,UO-31 renal,0.631 µM
same,TGI,UO-31 renal,16.4 µM
same,GI50,EKVX NSCLC,0.621 µM
same,TGI,EKVX NSCLC,> 100 µM
same,GI50,BT-549 breast,0.901 µM
same,TGI,BT-549 breast,17.6 µM
same,GI50,NCI-H226 lung,0.572 µM
same,TGI,NCI-H226 lung,13.2 µM
same,GI50,MDA-MB-231 breast,0.991 µM
same,TGI,MDA-MB-231 breast,12 µM
same,GI50,KM12 colon,0.389 µM
same,TGI,KM12 colon,22.2 µM
same,GI50,OVCAR-3 ovarian,0.275 µM
same,TGI,OVCAR-3 ovarian,1.02 µM
same,GI50,SK-MEL-2 melanoma,0.631 µM
same,TGI,SK-MEL-2 melanoma,> 100 µM
CCOC(=O)/C=C(\C)Sc1cc(O)c2ccccc2c1O,TGI,OVCAR-4 ovarian,32 µM
same,TGI,PC-3 prostate,67.2 µM
same,TGI,SK-MEL-5 melanoma,26.6 µM
same,TGI,SW-620 colon,> 100 µM
same,TGI,SF-295 CNS,51.6 µM
same,TGI,SK-MEL-28 melanoma,30.4 µM
same,TGI,OVCAR-5 ovarian,54.3 µM
same,TGI,DU-145 prostate,> 100 µM
same,TGI,RPMI-8226 leukemia,> 100 µM
same,TGI,TK-10 renal,53.8 µM
same,TGI,HOP-62 NSCLC,39.8 µM
same,TGI,NCI-H522 lung,24.9 µM
same,TGI,MALME-3M melanoma,29.1 µM
same,TGI,HL-60(TB) leukemia,88.7 µM
same,TGI,CAKI-1 renal,46.8 µM
same,TGI,A498 renal,41.1 µM
same,TGI,HT29 colon,42.9 µM
same,TGI,LOX IMVI melanoma,92.2 µM
same,TGI,A549 NSCLC,85.9 µM
same,TGI,ACHN renal,29.7 µM
same,TGI,NCI/ADR-RES ovarian,86.7 µM
same,TGI,CCRF-CEM leukemia,> 100 µM
same,TGI,HOP-92 NSCLC,62.4 µM
same,TGI,HCT-116 colon,> 100 µM
same,TGI,MCF7 breast,65.6 µM
same,TGI,T-47D breast,9.9 µM
same,TGI,IGROV1 ovarian,27.7 µM
same,TGI,MOLT-4 leukemia,> 100 µM
same,TGI,SF-268 CNS,25 µM
same,TGI,786-0 renal,44.2 µM
same,TGI,M14 melanoma,52.5 µM
same,TGI,OVCAR-8 ovarian,42.4 µM
same,TGI,SN12C renal,83.5 µM
same,TGI,SR leukemia,> 100 µM
same,TGI,HCT-15 colon,37.8 µM
same,TGI,MDA-MB-435,5.8 µM
same,TGI,UACC-257 melanoma,35.6 µM
same,TGI,NCI-H460 lung,44.6 µM
same,TGI,RXF 393 renal,31.9 µM
same,TGI,K-562 leukemia,> 100 µM
same,TGI,NCI-H23 lung,> 100 µM
same,TGI,SNB-75 CNS,23.8 µM
same,TGI,COLO 205 colon,35.1 µM
same,TGI,SK-OV-3 ovarian,66.4 µM
same,TGI,SNB-19 CNS,34.1 µM
same,TGI,U251 CNS,40.9 µM
same,TGI,SF-539 CNS,45 µM
same,TGI,HS 578T breast,> 100 µM
same,TGI,UACC-62 melanoma,60.1 µM
same,TGI,HCC-2998 colon,28.1 µM
same,TGI,UO-31 renal,18.9 µM
same,TGI,EKVX NSCLC,81.9 µM
same,TGI,BT-549 breast,40.9 µM
same,TGI,NCI-H226 lung,61.3 µM
same,TGI,MDA-MB-231 breast,44.2 µM
same,TGI,KM12 colon,75.4 µM
same,TGI,OVCAR-3 ovarian,> 100 µM
same,TGI,SK-MEL-2 melanoma,50.5 µM
